{
  "source": "patent US20130324413A1",
  "about": "“METHOD FOR PROMOTING PLANT GROWTH” (SUMITOMO CHEMICAL COMPANY, LIMITED, priority 2011, published 2013)",
  "type_in_all_cases": "in vivo",
  "key": {"[1]": {"system": "corn plants (cultivar: Koshu)", "experiment": "Test Example 3: corn seed soaking, fresh weight of above-ground part", "description": "Each of the 1,000-fold concentrated dimethylsulfoxide (DMSO) solutions of compound (1b) was 1,000-fold diluted with water to prepare a soultion of compound (1b) at the test concentration. The solution was dispensed in 30 ml aliquots into […] Petri dishes, in which seeds of corn plants (cultivar: Koshu) were soaked and incubated for 16 hours at 24° C. in the dark. The corn seeds (cultivar: Koshu) were sown in the culture soil (AISAI) in the plastic pots (55 mm in diameter×58 mm in height), and corn seedlings were grown for 18 days under the following, conditions: temperature, 27° C.; illuminance, about 5,000 lux; day length, 16 hours. As a control, a 0.1% aqueous DMSO solution was prepared, and seeds were soaked in this solution and then sown and grown into seedlings in the same way as described above. This group was used as the non-treated group. The fresh weight of the above-ground part of the corn seedlings obtained above was measured. The experiment was performed in four replications for each individual plant at each treatment concentration and the average weight per individual was calculated."}, "[2]": {"system": "corn plants (cultivar: Koshu)", "experiment": "Test Example 9: corn seed soaking, low-temperature stress, fresh weight of above-ground part", "conditions": "for Average fresh weight of above-ground part: low-temperature stress 3±2° C. 7 days, non-treated 1.18 g", "description": "Each of the 1,000-fold concentrated dimethylsulfoxide (DMSO) solutions of compound (1b) was 1,000-fold diluted with water to prepare a soultion of compound (1b) at the test concentration. The solution was dispensed in 30 ml aliquots into […] Petri dishes, in which seeds of corn plants (cultivar: Koshu) were soaked and incubated for 16 hours at 24° C. in the dark. The corn seeds were sown in the culture soil (AISAI) in the plastic pots (55 mm in diameter×58 mm in height), and corn seedlings were grown for 4 days under the following conditions: temperature, 27° C.; illuminance, about 5,000 lux; day length, 16 hours. As a control, a 0.1% aqueous DMSO solution was prepared, and seeds were soaked in this solution and then sown and grown into seedlings in the same way as described above. This group was used as the non-treated group. The corn seedlings were placed in a phytotron under the following conditions in order to expose the plants to low-temperature stress for 7 days. • Conditions: “temperature, 3±2° C.; day length, 16 hours; • illuminance, about 5,000 lux; humidity, 35 to 80%” The plants were then grown for another 7 days under the following conditions: temperature, 27° C.; humidity, 50 to 75%, illuminance, about 5,000 lux; day length, 16 hours. Then the fresh weight of the above-ground part of the plants was measured. The experiment was performed in four replications for each individual plant for each treatment condition and the average weight per individual was calculated."}, "[3]": {"system": "Corn (cultivar: PIONEER 31N27)", "experiment": "Test Example 8: corn seedling spraying, low-temperature stress, fresh weight of above-ground part", "conditions": "for Average fresh weight of above-ground part: low-temperature stress 2±2° C. 5 days, non-treated 0.79 g", "description": "Corn seeds (cultivar: PIONEER 31N27) were sown in the culture soil (AISAI) in plastic pots (55 mm in diameter×58 mm in height) and grown for a week under the following conditions to obtain corn seedlings: temperature, 20 to 25° C.; humidity, 50 to 75%; illuminance, about 5,000 lux; day length, 16 hours.\nA flowable formulation of the compound (1b) was obtained by adding 120 mg of a mixture of white carbon and a polyoxyethylene alkyl ether sulfate ammonium salt (weight ratio of 1:1) and 300 μl of water to 0.5 mg of compound (1b), followed by fine grinding by a wet grinding method. This flowable formulation was diluted with 50 ml of water, to which RINO (manufactured by NIHON NOHYAKU) was added as a sticker to 5,000-fold dilution, whereby a spray solution was obtained. A sufficient amount of the spray solution was applied to the corn seedlings by using an automatic spraying machine. As a control, a flowable formulation without compound (1b) was prepared and then sprayed to the non-treated group.\nSubsequently, the corn seedlings treated with the spray solution were placed in a phytotron under the following conditions in order to expose the plants to low-temperature stress for 5 days. • Conditions: “temperature, 2±2° C.; lighting hour, 16 hours; • illuminance, about 5,000 lux; humidity, 35 to 80%”\nThe plants were then grown for another 4 days under the following conditions: temperature, 25 to 28° C.; humidity, 50 to 75%, illuminance, about 5,000 lux; day length, 16 hours. Then the fresh weight of the above-ground part of the plants was measured. The experiment was performed in four replications for each treatment condition and the average weight per individual was calculated."}, "[4]": {"system": "oilseed rape (Brasicca napus)", "experiment": "Test Example 11: oilseed rape field application, yield of the seeds", "conditions": "flowable formulation, 250 g per hectare at day 240 (BBCH 63); evaluated day 334; non-treated 4.25 tons/hectare", "from_the_text": "Seeds of oilseed rape (Brasicca napus) were sown at 5.5 kg seeds per hectare and grown. At day 240 after the sowing, at growth stage 63, according to the Biologische Bundesanstalt, Bundessortenamt and CHemical industry (BBCH) scale, the flowable formulation prepared as described in Formulation Example 2 containing compound (1b) was applied in an amount of 250 g per hectare. A group for the treatment measured 2 m×12 m. This group was the present compound-treated group. A group treated with the formulation without compound (1b) was used as the non-treated group, in which plants were cultivated in the same manner as in the treated group.\nAt day 334 after the sowing, the yield of the seeds was evaluated. As a result, the yield calculated presuming 9% seed water content was 4.55 tons/hectare in the present compound-treated group, while it was 4.25 tons/hectare in the non-treated group. During the testing, no diseases were observed that affected the yield either in the present compound-treated or non-treated group."}, "[5]": {"system": "corn seeds (cultivar: Kuromochi)", "experiment": "Test Example 1: corn seed coating, fresh weight of above-ground part after 18 days", "conditions": "for Average fresh weight of above-ground part: seed coating, grown 18 days at 27° C., non-treated 4.2 g", "description": "A blank slurry solution containing 5% (V/V) color coat red (Becker Underwood, Inc.), 5% (V/V) CF-Clear (Becker Underwood, Inc.) and 0.4% Maxim XL (Syngenta) was prepared. […] In a 50-ml centrifuge tube (manufactured by BD Japan), 0.48 ml of the slurry solution was placed for each 20 g of corn seeds (cultivar: Kuromochi) and stirred until the solution was dried, thereby coating the seeds. As a control, seeds were coated with the blank slurry solution and used as seeds for a non-treated group. Two treated corn seeds were sown in the culture soil (AISAI) in each plastic pot (55 mm in diameter×58 mm in height) and grown for 18 days under the following conditions: temperature, 27° C.; illuminance, about 5,000 lux; day length, 16 hours. The fresh weight of the above-ground part of the plants was measured. The experiment was performed in four replications for each treatment condition and the average weight per individual was calculated."}},
  "data": [
    {"smiles": "CNC(=O)C(OC)c1ccccc1COc1cc(C)ccc1C", "note": "(racemic) [Compound (1b), N-methyl-2-[2-(2,5-dimethylphenoxy)methyl]phenyl-2-methoxyacetamide]", "values": [
      {"measurement": "fresh weight of the above-ground part as compared with the non-treated group", "setting": "[1]; concentration of 3 ppm", "value": "increased"},
      {"measurement": "Average fresh weight of above-ground part", "setting": "[1]; seed soaking 3 ppm, 16 hours, grown 18 days, non-treated 4.47 g", "value": 6.60, "unit": "g"},
      {"measurement": "fresh weight of the above-ground part as compared with the non-treated group", "setting": "[2]; plants exposed to low-temperature stress, concentration range of 3 ppm to 30 ppm", "value": "increased"},
      {"measurement": "Average fresh weight of above-ground part", "setting": "[2]; seed soaking 3 ppm", "value": 1.49, "unit": "g"},
      {"measurement": "Average fresh weight of above-ground part", "setting": "[2]; seed soaking 10 ppm", "value": 2.25, "unit": "g"},
      {"measurement": "Average fresh weight of above-ground part", "setting": "[2]; seed soaking 30 ppm", "value": 1.35, "unit": "g"},
      {"measurement": "fresh weight of the above-ground part as compared with the non-treated group", "setting": "[3]; plants exposed to low-temperature stress, concentration range of 10 ppm to 100 ppm", "value": "increased"},
      {"measurement": "Average fresh weight of above-ground part", "setting": "[3]; spray 10 ppm", "value": 0.89, "unit": "g"},
      {"measurement": "Average fresh weight of above-ground part", "setting": "[3]; spray 30 ppm", "value": 0.94, "unit": "g"},
      {"measurement": "Average fresh weight of above-ground part", "setting": "[3]; spray 100 ppm", "value": 0.90, "unit": "g"},
      {"measurement": "yield of the seeds calculated presuming 9% seed water content", "setting": "[4]", "value": 4.55, "unit": "tons/hectare"},
      {"measurement": "Relative value (fresh weight of above-ground part)", "setting": "[5]; 12.5 g/ of seeds, non-treated = 100", "value": 105, "unit": "%"},
      {"measurement": "fresh weight of the above-ground part as compared with the control group", "setting": "[5]; amount ranging from 10 g to 50 g per 100 kg of seeds", "value": "increased"},
      {"measurement": "Average fresh weight of above-ground part", "setting": "[5]; amount of compound 10 g/ of seeds", "value": 4.4, "unit": "g"},
      {"measurement": "Average fresh weight of above-ground part", "setting": "[5]; amount of compound 12.5 g/ of seeds", "value": 4.4, "unit": "g"},
      {"measurement": "Average fresh weight of above-ground part", "setting": "[5]; amount of compound 25 g/ of seeds", "value": 5.0, "unit": "g"},
      {"measurement": "Average fresh weight of above-ground part", "setting": "[5]; amount of compound 50 g/ of seeds", "value": 4.5, "unit": "g"}
    ]}
  ]
}
